Test results published in US11858946B2, “Small molecules active against gram-negative bacteria” (The Board of Trustees of the University of Illinois, priority 2016, dated 2024).
In brackets after ≈: the same amount, converted by molar mass. Read-outs that look alike come from different tables or passages of the source.

Experiments:
E. coli MG1655 [1] = test: Accumulation assay in whole-cell E. coli, LC-MS/MS quantification; settings: for accumulation in E. coli: E. coli MG1655 whole cells, 37° C., LC-MS/MS; for accumulation in E. coli / accumulation in E. coli (in words): 50 μM compound, 10 minutes; for accumulation in E. coli (in words): E. coli whole cells; for accumulation upon co-treatment with colistin: E. coli, 6.0 μM colistin sulfate added before compound
Description: Antimicrob. Agents Chemother. 36, 2622-2627, (1992); Davis, T. D., Gerry, C. J. & Tan, D. S. General platform for systematic quantitative evaluation of small-molecule permeability in bacteria. ACS Chem. Biol. 9, 2535-2544, (2014); and Cai, H., Rose, K., Liang, L. H., Dunham, S. & Stover, C. Development of a liquid chromatography/mass spectrometry-based drug accumulation assay in Pseudomonas aeruginosa. Anal. Biochem. 385, 321-325, (2009); with LC-MS/MS used to quantify the accumulation of each compound. E. coli MG1655 was utilized for these experiments as this strain has been only minimally altered from its K-12 progenitor. To ensure the assay was reporting on compound accumulation, as opposed to non-specific affinity for the outer membrane, several control experiments were conducted. The assay method was evaluated with antibiotics that have known high or low levels of accumulation, based on published accumulation data and antibacterial activity against E. coli. […] Colistin is known to potentiate the activity of low-accumulating antibiotics by aiding the diffusion of lipophilic compounds across the membrane.
For each replicate, 2.5 mL of an overnight culture of E. coli was diluted into 250 mL of fresh Luria Bertani (LB) broth (Lennox) and grown at 37° C. with shaking to an OD600=0.55. The bacteria were pelleted at 3,220 rcf for 10 minutes at 4° C. and the supernatant was discarded. The pellets were re-suspended in 40 mL of phosphate buffered saline (PBS) and pelleted as before, and the supernatant was discarded. The pellets were re-suspended in 8.8 mL of fresh PBS and aliquoted into ten 1.5 mL eppendorf tubes (875 μL each). The number of colony forming units (CFUs) was determined via a calibration curve. The samples were equilibrated at 37° C. with shaking for 5 minutes, compound was added ([final]=50 μM), and then samples were incubated at 37° C. with shaking for 10 minutes. […] After incubation, 800 μL of the cultures were carefully layered on 700 μL of silicone oil (9:1 AR20/Sigma High Temperature, cooled to −78° C.). Bacteria were pelleted through the oil by centrifuging at 13,000 rcf for 2 minutes at room temperature (supernatant remains above the oil); the supernatant and oil were then removed by pipetting. To lyse the samples, each pellet was dissolved in 200 μL of water, and then they were subjected to three freeze-thaw cycle of three minutes in liquid nitrogen followed by three minutes in a water bath at 65° C. The lysates were pelleted at 13,000 rcf for 2 minutes at room temperature and the supernatant was collected (180 μL). The debris was re-suspended in 100 μL of methanol and pelleted as before. The supernatants were removed and combined with the previous supernatants collected. Finally, remaining debris was removed by centrifuging at 20,000 rcf for 10 minutes at room temperature. Supernatants were analyzed by LC-MS/MS.
Samples were analyzed with the 5500 QTRAP LC/MS/MS system (AB Sciex, Foster City, CA) with a 1200 series HPLC system (Agilent Technologies, Santa Clara, CA) including a degasser, an autosampler, and a binary pump. The LC separation was performed on an Agilent SB-Aq column (4.6×50 mm, 5 μm) (Agilent Technologies, Santa Clara, CA) with mobile phase A (0.1% formic acid in water) and mobile phase B (0.1% formic acid in acetonitrile). The flow rate was 0.3 mL/min. The linear gradient was as follows: 0-3 min, 100% A; 10-15 min, 2% A; 15.5-21 min, 100% A. The autosampler was set at 5° C. The injection volume was 15 μL. Mass spectra were acquired with both positive electrospray ionization (ESI) at the ion spray voltage of 5500 V and negative ESI at the ion spray voltage of −4500 V. The source temperature was 450° C. The curtain gas, ion source gas 1, and ion source gas 2 were 33, 50, and 65, respectively.

Staphylococcus aureus = test: Antibiotic susceptibility test (microdilution broth), S. aureus; type: cell-based
E. coli MG1655 [2] = test: Antibiotic susceptibility test (microdilution broth), E. coli MG1655; type: cell-based, Escherichia coli; settings: for MIC: Escherichia coli
Procedure: (§1) 6DNM and its derivatives were further evaluated against an expanded panel of Gram-negative pathogens, laboratory strains and clinical isolates of ESKAPE pathogens E. coli, Acinetobacter baumannii, Klebsiella pneumoniae, Enterobacter cloacae, and Pseudomonas aeruginosa (Table 1 of FIG. 19).
(§2) Susceptibility testing was performed in triplicate, using the microdilution broth method as outlined by the Clinical and Laboratory Standards Institute. Mueller Hinton (MH) broth was used.

E. coli (ATCC BAA-2469) = test: Antibiotic susceptibility test (microdilution broth), NDM-1 producing E. coli clinical isolate; type: cell-based; settings: Escherichia coli, ATCCBAA2469, read-out: MIC against multi-drug resistant NDM-1 producing E. coli ATCC BAA-2469
Procedure: as §1, §2

[3] = test system: E. coli, Acinetobacter baumannii, Klebsiella pneumoniae, Enterobacter cloacae, and Pseudomonas aeruginosa; test: Antibiotic susceptibility test (microdilution broth), expanded panel of Gram-negative pathogens; type: cell-based; settings: for activity against expanded panel of Gram-negative pathogens (in words): laboratory strains and clinical isolates of ESKAPE pathogens
Procedure: as §1, §2

[4] = test system: ΔompR strain of E. coli (OmpF and OmpC knockout) vs parental E. coli BW25113
Description: A ΔompR strain of E. coli from the KEIO knockout collection was therefore chosen to effectively knockout both OmpF and OmpC (knockout was validated by analyzing the outer membrane proteins of the ΔompR strain compared to the parental strain, data not shown).

Cc1cc(=O)n(C)c2c3c4c(cc12)c(C)cc(=O)n4C(CN)CO3 (centres unmarked) [Compound 6DNM-NH3]
accumulation in E. coli (E. coli MG1655 [1]): 1114 nmol/10^12 CFUs
activity against S. aureus (in words) (Staphylococcus aureus): retains activity
MIC (E. coli MG1655 [2]; MG1655, microdilution broth, MH broth, read-out: MIC against E. coli MG1655): 0.5 µg/mL (≈ 1.54 µM)
MIC (E. coli (ATCC BAA-2469)): 4 µg/mL (≈ 12.3 µM)
activity against other clinical isolates of E. coli, A. baumannii, K. pneumonia, and E. cloacae (in words) ([3]; clinical isolates): good activity against most of the other clinical isolates
activity against expanded panel of Gram-negative pathogens (in words) [3]: antibacterial activity against all of these Gram-negative pathogens except P. aeruginosa
accumulation in ΔompR strain compared to parental/WT strain [4]: decrease in accumulation

Cc1cc(=O)n(C)c2c3c4c(cc12)c(C)cc(=O)n4C(CC(=O)O)CO3 (centres unmarked) [Compound 6DNM-acid]
accumulation in E. coli (in words) (E. coli MG1655 [1]): do not accumulate
activity against E. coli (in words) (E. coli MG1655 [2]): no activity

CC(=O)NCC1COc2c3c(cc4c(C)cc(=O)n1c24)c(C)cc(=O)n3C (centres unmarked) [Compound 6DNM-amide]
accumulation in E. coli (in words) (E. coli MG1655 [1]): do not accumulate
activity against E. coli (in words) (E. coli MG1655 [2]): no activity

Cc1cc(=O)n(C)c2c3c4c(cc12)c(C)cc(=O)n4CCO3 [Compound 6DNM]
accumulation in E. coli (E. coli MG1655 [1]): 298 nmol/10^12 CFUs
MIC (Staphylococcus aureus; Staphylococcus aureus, microdilution broth, MH broth, read-out: MIC against Staphylococcus aureus): 0.06 to 1 µg/mL (≈ 0.202 to 3.37 µM)
MIC (E. coli MG1655 [2]; MG1655, read-out: MIC versus E. coli): > 32 µg/mL
activity against expanded panel of Gram-negative pathogens (in words) [3]: no notable activity

NC1COC2C(O)COC12 (centres unmarked) [Compound 20, mono-amine isomannide]
accumulation in E. coli (in words) (E. coli MG1655 [1]): does not accumulate

O=C(O)c1cn(C2CC2)c2cc(N3CCNCC3)c(F)cc2c1=O [ciprofloxacin, reference compound]
reduction of CFUs during accumulation assay (factor) (E. coli MG1655 [1]; treatment for 10 minutes, 50 μM): five
accumulation in ΔompR strain compared to parental/WT strain [4]: significant decrease in accumulation

CO[C@@H]1[C@@H](OC(N)=O)[C@@H](O)[C@H](Oc2ccc3c(O)c(NC(=O)c4ccc(O)c(CC=C(C)C)c4)c(=O)oc3c2C)OC1(C)C [novobiocin, reference compound]
accumulation upon co-treatment with colistin (E. coli MG1655 [1]): increase in accumulation

CO[C@H]1/C=C/O[C@@]2(C)Oc3c(C)c(O)c4c(O)c(c(/C=N/N5CCN(C)CC5)c(O)c4c3C2=O)NC(=O)/C(C)=C\C=C\[C@H](C)[C@H](O)[C@@H](C)[C@@H](O)[C@@H](C)[C@H](OC(C)=O)[C@@H]1C [rifampicin, reference compound]
accumulation upon co-treatment with colistin (E. coli MG1655 [1]): increase in accumulation
